Source: ChEMBL document CHEMBL4354874, “Insights into PPARγ Phosphorylation and Its Inhibition Mechanism” (J Med Chem, 2020)
Activity calls are given as the source filed them. The rule behind the calls is not given here.

Biological target: Cyclin-dependent kinase 5 (Homo sapiens) (UniProt Q00535)
Assay: Inhibition of CDK5 (unknown origin) assessed as reduction in histone H1 phosphorylation

Chain of Cyclin-dependent kinase 5 (Homo sapiens) (Q00535 whole entry, looked up): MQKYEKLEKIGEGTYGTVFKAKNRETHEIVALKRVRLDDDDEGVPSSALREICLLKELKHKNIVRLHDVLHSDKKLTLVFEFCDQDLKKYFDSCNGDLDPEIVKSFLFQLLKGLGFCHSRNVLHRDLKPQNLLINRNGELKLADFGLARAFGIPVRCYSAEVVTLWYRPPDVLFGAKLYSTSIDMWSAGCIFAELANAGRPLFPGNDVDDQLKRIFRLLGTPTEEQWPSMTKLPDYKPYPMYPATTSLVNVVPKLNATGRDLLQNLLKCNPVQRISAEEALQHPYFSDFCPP

O=C(O)[C@H](Cc1ccccc1)Oc1ccc(-c2ccccc2)cc1
inhibition: inactive
